The numbers were not newly measured in patent US10568936B2, “Pharmaceutical composition for transmucosal delivery and methods for treating diabetes in a subject in need thereof” (Eastgate Pharmaceuticals Inc., priority 2014, dated 2020), which cites them from elsewhere.

The conditions of data set [1]: eutectic mixture with menthol.

On to `C[C@]12CC[C@H]3[C@@H](CCC4=CC(=O)CC[C@@]43C)[C@@H]1CC[C@@H]2O` [testosterone], for which the “Increase in the solubility of testosterone in an aqueous ethanol vehicle” value in data set [1] is 2.8 fold. In addition, where the note is “eutectic mixture with menthol”, the “Increase in the flux of testosterone” value was 2.8 fold. Further, the “Further increase in skin flux” value (high concentration of menthol) is reported as “eight times the base line”.
